Source: US7482468B2, “Imidazole and benzimidazole derivatives useful as histamine H3 antagonists” (Schering Corporation, priority 2005, dated 2009)

Molecular target: H3 receptors (Cavia porcellus, UniProt Q9JI35)
Test: biochemical
Description: General Procedure for H3-Receptor Binding Assay
The source of the H3 receptors in this experiment was guinea pig brain. The animals weighed 400-600 g. The brain tissue was homogenized with a solution of 50 mM Tris, pH 7.5. The final concentration of tissue in the homogenization buffer was 10% w/v. The homogenates were centrifuged at 1,000×g for 10 min. in order to remove clumps of tissue and debris. The resulting supernatants were then centrifuged at 50,000×g for 20 min. in order to sediment the membranes, which were next washed three times in homogenization buffer (50,000×g for 20 min. each). The membranes were frozen and stored at −70° C. until needed.
All compounds to be tested were dissolved in DMSO and then diluted into the binding buffer (50 mM Tris, pH 7.5) such that the final concentration was 2 μg/ml with 0.1% DMSO. Membranes were then added (400 μg of protein) to the reaction tubes. The reaction was started by the addition of 3 nM [^3H]R-α-methyl histamine (8.8 Ci/mmol) or 3 nM [^3H]N^α-methyl histamine (80 Ci/mmol) and continued under incubation at 30° C. for 30 min. Bound ligand was separated from unbound ligand by filtration, and the amount of radioactive ligand bound to the membranes was quantitated by liquid scintillation spectrometry.

H3 receptors, sequence (Q9JI35 whole entry): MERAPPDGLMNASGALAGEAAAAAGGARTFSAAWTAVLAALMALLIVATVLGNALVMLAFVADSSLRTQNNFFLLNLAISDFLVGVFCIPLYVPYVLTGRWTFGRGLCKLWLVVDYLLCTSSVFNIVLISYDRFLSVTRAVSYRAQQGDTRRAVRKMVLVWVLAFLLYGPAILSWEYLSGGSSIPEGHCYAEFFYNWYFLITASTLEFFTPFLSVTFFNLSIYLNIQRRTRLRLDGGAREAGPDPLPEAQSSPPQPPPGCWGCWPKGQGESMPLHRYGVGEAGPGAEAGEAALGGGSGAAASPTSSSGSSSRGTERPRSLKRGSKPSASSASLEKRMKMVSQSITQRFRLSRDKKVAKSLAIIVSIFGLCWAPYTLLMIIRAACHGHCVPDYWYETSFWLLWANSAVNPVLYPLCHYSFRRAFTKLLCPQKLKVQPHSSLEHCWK

With `Fc1ccc2c(c1)nc(-c1ccccn1)n2-c1ccc(OCCCN2CCCCC2)cc1` [Example 1EE] the Ki was 1 nM.
